The results in this text go back to patent publication US20110217241A1, “CONJUGATES OF 19F MR IMAGING TRACERS FOR USE IN MULTI-CHROMIC MRI IMAGING” (University of Maryland, Baltimore, priority 2008, published 2011).

Data set [1] is described as follows: 19F resonance frequency (chemical shift) with different metal ions. It is filed as physicochemical. As to conditions: FIG. 6. An excerpt: In FIG. 6, the darker bars indicate paramagnetic ion complexes and the lighter bars indicate diamagnetic complexes. As shown in the graph of FIG. 6, the different metal ions led to different ^19F resonance frequencies, ranging from δ(^19FIT-Bi^3+)=−71.17 ppm to δ(^19FIT-Tb^3+)=−63.32 ppm. In each case, there was a single ^19F signal.

A short description of data set [2]: 19F relaxation times (T1, T2) under different solution conditions. To be noted: for Relaxation Times T1 / Relaxation Times T2 / T1 percentage relative to T1 under Condition 1 / T2 percentage relative to T2 under Condition 1: pH 7, 50 mM; for Relaxation Times T1 / Relaxation Times T2 / pH dependency of 19F relaxation times T1 and T2: 11.7 Tesla; for pH dependency of 19F relaxation times T1 and T2: pH 6, 7 & 8. It is filed as physicochemical. The method, then: The ^19F T1 and T2 were determined under different solution conditions for the paramagnetic ^19FIT-Gd^3+ and for the diamagnetic ^19FIT-Y^3+ from the above example (and shown in FIG. 6). The conditions and results are summarized below in Table 1. The percentage numbers for Conditions 2-5 were calculated relative to T1 or T2 under Condition 1. […] For example, the weakly paramagnetic O2 had little effect on the ^19F T1 and T2 of ^19FIT-Gd^3+.
19F T1 and T2 were also determined for ^19FIT-Gd^3+ and ^19FIT-Y^3+ at different pH values (pH 6 7 & 8). […] The NMR field strength for the testing was 11.7 Tesla.

Setting [3] is: Condition 1: PBS buffer saturated with N2, 25° C.
Setting [4] is: Condition 2: PBS buffer saturated with O2, 25° C.
Where [5] appears, read: Condition 3: PBS buffer saturated with N2, 45° C.
The mark [6] stands for this setting: Condition 4: Human sera with 10% D2O saturated with N2, 25° C.
Setting [7] is: Condition 5: 10% w/v bovine serum albumin in PBS buffer saturated with N2, 25° C.

Consider `O=C([O-])CN1CCN(CC(=O)[O-])CCN(CC(=O)NCCOCCOCCOCCOC(C(F)(F)F)(C(F)(F)F)C(F)(F)F)CCN(CC(=O)[O-])CC1.[Bi+3]` [^19FIT-Bi^3+], for which the “19F resonance frequency δ” value in data set [1] was −71.17 ppm.

On to `O=C([O-])CN1CCN(CC(=O)[O-])CCN(CC(=O)NCCOCCOCCOCCOC(C(F)(F)F)(C(F)(F)F)C(F)(F)F)CCN(CC(=O)[O-])CC1.[Tb+3]` [^19FIT-Tb^3+], for which the “19F resonance frequency δ” value in data set [1] is reported as −63.32 ppm.

Consider `O=C([O-])CN1CCN(CC(=O)[O-])CCN(CC(=O)NCCOCCOCCOCCOC(C(F)(F)F)(C(F)(F)F)C(F)(F)F)CCN(CC(=O)[O-])CC1.[Y+3]` [^19FIT-Y^3+], for which the “Relaxation Times T1” value in data set [2] (setting [3]) is 1498 ms; in data set [2] (setting [4]), 1074 ms; in data set [2] (setting [5]), 2133 ms; in data set [2] (setting [6]) it was 1211 ms; in data set [2] (setting [7]), 1200 ms. For the same compound, the “Relaxation Times T2” value in data set [2] (setting [3]) is given as 1057 ms; in data set [2] (setting [4]) it was 665 ms; in data set [2] (setting [5]), 1511 ms; in data set [2] (setting [6]) it was 214 ms; in data set [2] (setting [7]), 139 ms. Also, the “T1 percentage relative to T1 under Condition 1” value was “(−28.3%)” in data set [2] (setting [4]), “(42.4%)” in data set [2] (setting [5]), “(−19.2%)” in data set [2] (setting [6]) and “(−19.9%)” in data set [2] (setting [7]). For the same compound, the “T2 percentage relative to T2 under Condition 1” value is reported as “(−37.1%)” in data set [2] (setting [4]), “(43.0%)” in data set [2] (setting [5]), “(−79.8%)” in data set [2] (setting [6]) and “(−86.8%)” in data set [2] (setting [7]). Further, in data set [2], the “pH dependency of 19F relaxation times T1 and T2” value is “neither complex showed significant pH dependency”.

For the compound `O=C([O-])CN1CCN(CC(=O)[O-])CCN(CC(=O)NCCOCCOCCOCCOC(C(F)(F)F)(C(F)(F)F)C(F)(F)F)CCN(CC(=O)[O-])CC1.[Gd+3]` [^19FIT-Gd^3+], the “Relaxation Times T1” value in data set [2] (setting [3]) is on record as 4.24 ms; in data set [2] (setting [4]), 4.27 ms; in data set [2] (setting [5]), 3.97 ms; in data set [2] (setting [6]) it was 4.27 ms; in data set [2] (setting [7]) it was 4.52 ms. The “Relaxation Times T2” value is recorded as 1.66 ms in data set [2] (setting [3]); 1.56 ms in data set [2] (setting [4]); 1.22 ms in data set [2] (setting [5]); 0.86 ms in data set [2] (setting [6]); 0.55 ms in data set [2] (setting [7]). Further, the “T1 percentage relative to T1 under Condition 1” value in data set [2] (setting [4]) is given as “(−0.7%)”; in data set [2] (setting [5]), “(−6.4%)”; in data set [2] (setting [6]), “(−0.7%)”; in data set [2] (setting [7]), “(6.6%)”. For the same compound, the “T2 percentage relative to T2 under Condition 1” value is on record as “(−6.0%)” in data set [2] (setting [4]), “(−26.5%)” in data set [2] (setting [5]), “(−48.2%)” in data set [2] (setting [6]) and “(−66.9%)” in data set [2] (setting [7]). Moreover, the “effect of weakly paramagnetic O2 on 19F T1 and T2” value in data set [2] (Condition 2 vs Condition 1) was “little effect”. Besides, in data set [2], the “pH dependency of 19F relaxation times T1 and T2” value is “neither complex showed significant pH dependency”.
